Assay results from US20240425512A1, “NITROGEN-CONTAINING HETEROCYCLIC COMPOUND, PHARMACEUTICAL COMPOSITION THEREOF AND APPLICATION THEREOF” (280 Bio, Inc., priority 2023, published 2024).
Like-named read-outs stand apart in the source and are kept apart here.

Tests used:
[1] = test system: LS513 colon cancer cell with KRAS G12D mutation; test: Proliferation inhibition on RAS cell lines measured by CTG, LS513; type: cell-based; conditions: LS513 cells, incubated for 6 days, read-out: IC50 (LS513^f)
From the text: NCI-H358 is a human non-small cell lung cancer cell line with KRAS G12C mutation; AGS is a gastric cancer cell line with KRAS G12D mutation; SW620 is a colon cancer cell with KRAS G12V mutation; NCI-H460 is a non-small cell lung cancer cell with KRAS Q61H mutation; MKN1 is a wild-type gastric cancer cell with KRAS-amplified; LS513 is a colon cancer cell with KRAS G12D mutation; LoVo is a colon cancer cell with KRAS G13D mutation; NCI-H441 is a lung cancer cell with KRAS G12V mutation, and Capan-2 is a pancreatic cancer cell with KRAS G12V mutation.
(§1) The proliferation inhibitory effect of the compounds on various mutations was evaluated by determining the proliferation inhibitory activity of the compounds on these cell lines.
(§2) The assay was conducted on either 384-well plates or 96-well plates. The procedures are as follows:
(§3) The cell suspensions were added to 384- or 96-well plates (384-well plate: 50 μL; 96-well plate: 100 μL) except for peripheral wells. The plates were placed in a carbon dioxide incubator overnight. NCI-H358, AGS, NCI-H460, MKN-1, LS513, LoVo, and NCI-H441 were placed in a 5%, 370 carbon dioxide incubator overnight, and SW620 was placed in a 0%, 370 carbon dioxide incubator overnight. The HPD300 micro-dosing instrument was used to add the corresponding concentration of compound to each well (9-10 concentration gradients of compound were obtained by 3-fold dilution). Cell plates were incubated in a carbon dioxide incubator for 5-6 days. NCI-H358, AGS, NCI-H460 and MKN-1 were incubated at 5%, 37° incubator and SW620 was incubated at 0%, 370 incubator. On the day of plate measurement, the 384- or 96-well plates were first equilibrated at room temperature for 10-30 min, then CellTiter Glo reagent (384-well plate: 25 μL; 96-well plate: 100 μL) was added to the 384- or 96-well plate, shaken for 10 min away from light, and incubated for 10 min. The plates were placed into Victor NIVO or ENVIDION reader plates, and XLFit was utilized to plot the pharmacodynamic inhibition curve and calculate the IC50 value. “IC50>10 μM” is denoted by “*”, “10 μM≥IC50≥1 μM” is denoted by “**”, and “1 μM≥IC50>100 nM” is denoted by “***”, “IC50<100 nM” is denoted by “****”

GP2D cells = test: Proliferation inhibition on RAS cell lines measured by CTG, GP2D; type: cell-based; conditions: 144 h, Table 2, incubated for 6 days, CellTiter Glo, read-out: IC50 (GP2D^j)
Description: as §1, §2, §3

[2] = Homo sapiens, LS-513, 144 h, Table 1, CellTiter Glo
[3] = Homo sapiens, LS-513, 144 h, Table 2, CellTiter Glo

IC50 [1, 3] | Compound | also measured
< 100 nM | CCc1cc2c(N3CCCCCN3)nc(OC[C@@]34CCCN3C[C@H](F)C4)nc2c(F)c1-c1ccc(F)c2sc(N)c(C#N)c12 [Compound 44] | 
< 100 nM | CCc1c(F)ccc2cc(O)cc(-c3ncc4c(N5CCCCCN5)nc(OCC5(CN6CCOCC6)CC5)nc4c3F)c12 [Compound 46] | 
< 100 nM | CCc1c(F)ccc2cc(O)cc(N3CCc4c(nc(OC[C@@]56CCCN5C[C@H](F)C6)nc4N4CCCCCN4)C3)c12 [Compound 51] | 
100 to 1000 nM | C#Cc1c(F)ccc2cc(O)cc(-c3ncc4c(N5CCCCCN5)nc(OCC5(CN6CCN(C)CC6)CC5)nc4c3F)c12 [Compound 52] | 
100 to 1000 nM | C#Cc1c(F)ccc2cc(O)cc(-c3ncc4c(N5CCCCCN5)nc(OCC5(CN6CCCC6)CC5)nc4c3F)c12 [Compound 53] | 

Second part, the molecule before the results:

Compound | IC50 [1, 3] | also measured
C#Cc1c(F)ccc2cc(O)cc(-c3ncc4c(N5CCCCCN5C(=O)OC(C)(C)C)nc(OC[C@@]56CCCN5C[C@H](F)C6)nc4c3F)c12 [Compound 12] |  | IC50 [1, 2]: < 100 nM
C#Cc1c(F)ccc2cc(O)cc(-c3ncc4c(N5CCCCCN5)nc(OCC5(CN(C)C)CC5)nc4c3F)c12 [Compound 13] |  | IC50 ([1]; Table 1, CellTiter Glo): < 100 nM
C#Cc1c(F)ccc2cc(O)cc(-c3ncc4c(N5CCCCCN5C(=O)OC(C)(C)C)nc(OCC5(CN(C)C)CC5)nc4c3F)c12 [Compound 14] |  | IC50 [1, 2]: 100 to 1000 nM
C#Cc1c(F)ccc2cc(O)cc(-c3ncc4c(N5CCCCN5)nc(OC[C@@]56CCCN5C[C@H](F)C6)nc4c3F)c12 [Compound 16] |  | IC50 ([1]; Homo sapiens, LS-513, 144 h, Table 1, numeric value): 11.8 nM; IC50 [1, 2]: < 100 nM
C#Cc1c(F)ccc2cc(O)cc(-c3ncc4c(N5CCCCCN5C(=O)OCC)nc(OC[C@@]56CCCN5C[C@H](F)C6)nc4c3F)c12 [Compound 20] | 100 to 1000 nM | 
C#Cc1c(F)ccc2cc(O)cc(-c3ncc4c(N5CCCCCN5)nc(OCC56CCCN5C/C(=C/F)C6)nc4c3F)c12 (stereo not drawn) [Compound 21] |  | IC50 [1, 2]: < 100 nM
C#Cc1c(F)ccc2cc(O)cc(-c3ncc4c(N5CCCCCN5)nc(OCC56CCCN5CC(=C(F)F)C6)nc4c3F)c12 (stereo not drawn) [Compound 22] |  | IC50 [1, 2]: < 100 nM
C#Cc1c(F)ccc2cc(O)cc(-c3ncc4c(N5CCNCCN5)nc(OC[C@@]56CCCN5C[C@H](F)C6)nc4c3F)c12 [Compound 40] | 1000 to 10000 nM | 
N#Cc1c(N)sc2c(F)ccc(-c3c(Cl)cc4c(N5CCCCCN5)nc(OC[C@@]56CCCN5C[C@H](F)C6)nc4c3F)c12 [Compound 42] | 100 to 1000 nM | 
C=Cc1cc2c(N3CCCCCN3)nc(OC[C@@]34CCCN3C[C@H](F)C4)nc2c(F)c1-c1ccc(F)c2sc(N)c(C#N)c12 [Compound 43] | < 100 nM | 
C#Cc1c(F)ccc2cc(O)cc(-c3ncc4c(N5CCCCCN5)nc(OCC5(CN6CCCCC6)CC5)nc4c3F)c12 [Compound 47] | < 100 nM | 
N#Cc1c(N)sc2c(F)ccc(-c3c(C(F)(F)F)cc4c(N5CCCCCN5)nc(OC[C@@]56CCCN5C[C@H](F)C6)nc4c3F)c12 [Compound 48] | < 100 nM | 
C#Cc1c(F)ccc2cc(O)cc(-c3c(C(F)(F)F)cc4c(N5CCCCCN5)nc(OC[C@@]56CCCN5C[C@H](F)C6)nc4c3F)c12 [Compound 54] |  | IC50 (GP2D cells): 100 to 1000 nM
C#Cc1c(F)ccc2cc(O)cc(-c3ncc4c(N5CCCC(F)(F)CN5)nc(OC[C@@]56CCCN5C[C@H](F)C6)nc4c3F)c12 [Compound 56] | < 100 nM | 
C#Cc1c(F)ccc2cc(O)cc(-c3ncc4c(N5CCCCCN5)nc(OCC56CCCN5C(COc5cc(C(F)(F)F)cnn5)CC6)nc4c3F)c12 (stereo not drawn) [Compound 58] | < 100 nM | IC50 (GP2D cells): < 100 nM
C#Cc1c(F)ccc2cc(O)cc(-c3ncc4c(N5CCCCCN5)nc(OCC56CCCN5C(COc5cc(C(F)(F)F)ncn5)CC6)nc4c3F)c12 (stereo not drawn) [Compound 60] | < 100 nM | IC50 (GP2D cells): < 100 nM
